Experimental findings from patent publication US8822463B2, “Methylcyclohexane derivatives and uses thereof” (Sk Biopharmaceuticals Co., Ltd., priority 2010, dated 2014) are described below.

Structures can show the parent of a compound that is named as a salt. Where two headings read alike, the source gives them in different places.

For assay [1], the system named is LPS-induced NO production in mouse monocytes (RAW). In words: LPS-induced NO production inhibition test, mouse monocytes (RAW). The assay is classed as cell-based. Conditions: Monocyte, RAW cells, 20 ng/ml LPS, 24 hours, Griess reagent. How it is done:
(§1) Mouse monocytes (RAW) and mouse microglia (BV2) cells were cultured on a 96-well transparent plate (Nunc) in such a way that each of the wells contained 60,000 and 35,000 cells respectively. After 18 hours, when stabilized, the cells were treated with lipopolysaccharide (Sigma, USA, Cat No. L2630) in a morbid state derived from 20 ng/ml of Escherichia coli O111:B4 and 4 different concentrations (50 uM, 12.5 uM, 3.1 uM, and 0.8 uM) of the compounds synthesized according to Examples 1 to 55. Then, the cells were cultured for 24 hours, and a concentration of increased NO was measured. The NO concentration was determined by measuring absorption at a wavelength of 540 nm after a Griess reagent including 0.1% N-(1-naphthyl)ethylenediamine dihydrochloride, 1% sulfanilamide, and 2.5% phosphoric acid were added thereto.

The test system of assay [2] is LPS-induced NO production in mouse microglia (BV2). In words: LPS-induced NO production inhibition test, mouse microglia (BV2). The assay is classed as cell-based. Conditions: BV-2, BV2 cells, 20 ng/ml LPS, 24 hours, Griess reagent. On the procedure: as §1
The subject of assay [3] is neuropathic pain (mechanical allodynia) in rats with caudal nerve damage. In words: Pain relief test using animal model (caudal nerve damage neuropathic pain, mechanical allodynia). It is filed as in vivo. Conditions: ip, rat, von Frey, reference concentration 30 mg/kg, read-out: Pain test results (% MPE, 50% tail withdrawal threshold). On the procedure:
Male rats (Sprague-Dawley, 150-200 g, 6-week old, Orient Bio Co., Ltd) were purchased and acclimated in an animal chamber for one week. The animal chamber was alternately turned on and off at a time interval of 12 hours, at a temperature of 22 to 25° C., and in a relative humidity of 40-60%, and water and feed was supplied ad libitum to the rats.
The rats were placed in a round acryl container (5.5 15, 6.5 18 cm, which varied according to the size of body) and only the tails thereof were taken out of the container and placed on a plate. To confirm a pain behavior corresponding to a mechanical stimulus, an up-down method (J. Neurosci. Methods 53:55-63) was performed using a von Frey filament so as to measure “50% tail withdrawal threshold.
During all the steps before surgery, anesthesia was maintained with a mixed gas including 2-3% enflurane and 95% oxygen.
The compounds were each prepared as a solution form by using 5% DMSO, 5% Cremophore, and 90% distilled water on a volumetric basis. Each of the solutions was intraperitoneally administered in a volume of 3 ml per kg of a rat. The concentration of the compounds was controlled according to a compound and the concentration of reference was 30 mg/kg. […]
Anti-allodynic effects of the compounds were described as mean±SEM, and were compared each other by referring to “% MPE (the percentage of maximum possible effect),” and analyzed using one-way ANOVA and Bonferroni's t-test. […] [% MPE=(the threshold with respect to time after the drug treatment−the threshold at 0 hr)/(15−the threshold at 0 hr)×100]

Setting [4] is: at 1 hour after intraperitoneal administration.
Where [5] appears, read: at 4 hours after intraperitoneal administration.

With `O=C(NCc1cccnc1)OC1CCC(COC(=O)N2CCCC2)CC1` (stereo not drawn) [Example 8, pyrrolidine-1-carboxylic acid 4-(pyridin-3-ylmethylcarbamoyloxy)-cyclohexylmethyl ester], the IC50 (as a rule, the concentration that inhibits the measured activity by half) in assay [1] was above 50 µM; in assay [2] it was 5.8 µM. Moreover, the inhibition in vivo in assay [3] (setting [4]) was found to be 11%.

For the compound `Cc1cccc(CNC(=O)OC2CCC(COC(=O)N3CCCC3)CC2)n1` (stereo not drawn) [Example 15, pyrrolidine-1-carboxylic acid 4-(6-methyl-pyridin-2-ylmethylcarbamoyloxy)-cyclohexylmethyl ester], the values for the concentration for half-maximal inhibition (IC50) in assay [1] and in assay [2] were 19.9 µM and 19.4 µM, respectively. In addition, in assay [3] (setting [4]), the inhibition in vivo was determined as 29.2%.

As to `O=C(NCc1ccnc(Cl)c1)OC1CCC(COC(=O)N2CCCC2)CC1` (stereo not drawn) [Example 16, pyrrolidine-1-carboxylic acid 4-(2-chloro-pyridin-4-ylmethylcarbamoyloxy)-cyclohexylmethyl ester], the IC50 in assay [1] worked out at 27.9 µM; in assay [2] it was 10.8 µM. Further, the inhibition in vivo in assay [3] (setting [5]) was 16.4%.

As to `O=C(NCc1ccc(Cl)nc1)OC1CCC(COC(=O)N2CCCC2)CC1` (stereo not drawn) [Example 17, pyrrolidine-1-carboxylic acid 4-(6-chloro-pyridin-3-ylmethylcarbamoyloxy)-cyclohexylmethyl ester], the IC50 in assay [1] was 29.5 µM; in assay [2] it was 12.5 µM. Moreover, the inhibition in vivo in assay [3] (setting [4]) was found to be 5.8%.

Turning to `O=C(NCc1cccnc1Cl)OC1CCC(COC(=O)N2CCCC2)CC1` (stereo not drawn) [Example 18, pyrrolidine-1-carboxylic acid 4-(2-chloro-pyridin-3-ylmethylcarbamoyloxy)-cyclohexylmethyl ester], the IC50 worked out at 5.7 µM in assay [1] and 18.3 µM in assay [2]. Further, the inhibition in vivo in assay [3] (setting [4]) was 22.5%.

For `O=C(Nc1ccncc1)OC1CCC(COC(=O)N2CCCC2)CC1` (stereo not drawn) [Example 20, pyrrolidine-1-carboxylic acid 4-(pyridin-4-ylcarbamoyloxy)-cyclohexylmethyl ester], the IC50 in assay [1] is 50 µM; in assay [2], 37.9 µM. Further, the inhibition in vivo in assay [3] (setting [5]) is 22%.

For the compound `O=C(Nc1ccccn1)OC1CCC(COC(=O)N2CCCC2)CC1` (stereo not drawn) [Example 21, pyrrolidine-1-carboxylic acid 4-(pyridin-2-ylcarbamoyloxy)-cyclohexylmethyl ester], the IC50 in assay [1] stood at 15.9 µM; in assay [2], 44.8 µM. For the same compound, the inhibition in vivo in assay [3] (setting [4]) is 35.2%.

`O=C(Nc1ccnc(Cl)c1)OC1CCC(COC(=O)N2CCCC2)CC1` (stereo not drawn) [Example 23, pyrrolidine-1-carboxylic acid 4-(2-chloro-pyridin-4-ylcarbamoyloxy)-cyclohexylmethyl ester]: the half-maximal inhibitory concentration (IC50) in assay [1] is 28.6 µM; in assay [2] it was above 50 µM. Also, the inhibition in vivo in assay [3] (setting [5]) stood at 18.7%.

Turning to `O=C(OCC1CCC(OCc2ccccn2)CC1)N1CCCC1` (stereo not drawn) [Example 35, pyrrolidine-1-carboxylic acid 4-(pyridin-2-ylmethoxy)-cyclohexylmethyl ester], the 50% inhibitory concentration (IC50) is above 50 µM in assay [1] and 50 µM in assay [2].

For `O=C(OCC1CCC(OCc2cccc[n+]2[O-])CC1)N1CCCC1` (stereo not drawn) [Example 36, pyrrolidine-1-carboxylic acid 4-(1-oxy-pyridin-2-ylmethoxy)-cyclohexylmethyl ester], the IC50 in assay [1] and in assay [2] was above 50 µM throughout.

Take `O=C(OCC1CCC(NCc2ccccc2)CC1)N1CCCC1` (stereo not drawn) [Example 37, pyrrolidine-1-carboxylic acid 4-benzylaminocyclohexylmethyl ester HCl salt]: the IC50 in assay [1] was 46.1 µM; in assay [2] it was above 50 µM.

On to `COc1ccc(CNC2CCC(COC(=O)N3CCCC3)CC2)cc1` (stereo not drawn) [Example 38, pyrrolidine-1-carboxylic acid 4-(4-methoxy-benzylamino)-cyclohexylmethyl ester HCl salt], for which the values for the IC50 in assay [1] and in assay [2] were 35.8 µM and above 50 µM, respectively.

Take `COc1ccc(CCNC2CCC(COC(=O)N3CCCC3)CC2)cc1` (stereo not drawn) [Example 39, pyrrolidine-1-carboxylic acid 4-[2-(4-methoxy-phenyl)-ethylamino]-cyclohexylmethyl ester HCl salt]: the 50% inhibitory concentration (IC50) in assay [1] and in assay [2] was above 50 µM each time.

Consider `O=C(NC1CCC(COC(=O)N2CCCC2)CC1)OCc1cccnc1` (stereo not drawn) [Example 41, pyrrolidine-1-carboxylic acid 4-(pyridin-3-ylmethoxycarbonylamino)-cyclohexylmethyl ester], for which the 50% inhibitory concentration (IC50) in assay [1] is 50 µM; in assay [2], above 50 µM.

Consider `O=C(NC1CCC(COC(=O)N2CCCC2)CC1)OCc1ccnc(Cl)c1` (stereo not drawn) [Example 43, pyrrolidine-1-carboxylic acid 4-(2-chloro-pyridin-4-ylmethoxycarbonylamino)-cyclohexylmethyl ester], for which the IC50 in assay [1] came out at 10.5 µM; in assay [2] it was 12 µM.

On to `O=C(NC1CCC(COC(=O)N2CCCC2)CC1)OCc1cccnc1Cl` (stereo not drawn) [Example 44, pyrrolidine-1-carboxylic acid 4-(2-chloro-pyridin-3-ylmethoxycarbonylamino)-cyclohexylmethyl ester], for which the figures for the IC50 in assay [1] and in assay [2] were 21.7 µM and 16.8 µM, respectively.

`O=C(NC1CCC(COC(=O)N2CCCC2)CC1)OCc1cc(Cl)nc(Cl)c1` (stereo not drawn) [Example 45, pyrrolidine-1-carboxylic acid 4-(2,6-dichloro-pyridin-4-ylmethoxycarbonylamino)-cyclohexylmethyl ester]: the IC50 in assay [1] was 9.9 µM; in assay [2], 7.5 µM.

In the case of `O=C(NC1CCC(COC(=O)N2CCCC2)CC1)OCc1cccc(Cl)n1` (stereo not drawn) [Example 46, pyrrolidine-1-carboxylic acid 4-(6-chloro-pyridin-2-ylmethoxycarbonylamino)-cyclohexylmethyl ester], the IC50 in assay [1] was 32 µM; in assay [2], 26.3 µM.

`O=C(NC1CCC(COC(=O)N2CCCC2)CC1)OCc1ccc(Cl)nc1` (stereo not drawn) [Example 47, pyrrolidine-1-carboxylic acid 4-(6-chloro-pyridin-3-ylmethoxycarbonylamino)-cyclohexylmethyl ester]: the IC50 was found to be 13.1 µM in assay [1] and 21.1 µM in assay [2].

As to `Cc1ncccc1COC(=O)NC1CCC(COC(=O)N2CCCC2)CC1` (stereo not drawn) [Example 48, pyrrolidine-1-carboxylic acid 4-(2-methyl-pyridin-3-ylmethoxycarbonylamino)-cyclohexylmethyl ester], the IC50 in assay [1] came to 13.5 µM; in assay [2] it was 10.2 µM.

Turning to `Cc1cccc(COC(=O)NC2CCC(COC(=O)N3CCCC3)CC2)n1` (stereo not drawn) [Example 49, pyrrolidine-1-carboxylic acid 4-(6-methyl-pyridin-2-ylmethoxycarbonylamino)-cyclohexylmethyl ester], the half-maximal inhibitory concentration (IC50) in assay [1] is 12 µM; in assay [2] it was 10.2 µM.

For `O=C(NC1CCC(COC(=O)N2CCCC2)CC1)OCc1ccc(C(F)(F)F)nc1` (stereo not drawn) [Example 50, pyrrolidine-1-carboxylic acid 4-(6-trifluoromethyl-pyridin-3-ylmethoxycarbonylamino)-cyclohexylmethyl ester], the IC50 came out at 5.7 µM in assay [1] and 14.2 µM in assay [2].

`O=C(NC1CCC(COC(=O)N2CCCC2)CC1)OCc1cccc[n+]1[O-]` (stereo not drawn) [Example 51, pyrrolidine-1-carboxylic acid 4-(1-oxy-pyridin-2-ylmethoxycarbonylamino)-cyclohexylmethyl ester]: the IC50 in assay [1] is 50 µM; in assay [2] it was above 50 µM.

`O=C(NC1CCC(COC(=O)N2CCCC2)CC1)OCc1ccc[n+]([O-])c1` (stereo not drawn) [Example 52, pyrrolidine-1-carboxylic acid 4-(1-oxy-pyridin-3-ylmethoxycarbonylamino)-cyclohexylmethyl ester]: the results for the IC50 in assay [1] and in assay [2] were 22.3 µM and above 50 µM, respectively.

Consider `O=C(NC1CCC(COC(=O)N2CCCC2)CC1)OCc1cc[n+]([O-])cc1` (stereo not drawn) [Example 53, pyrrolidine-1-carboxylic acid 4-(1-oxy-pyridin-4-ylmethoxycarbonylamino)-cyclohexylmethyl ester], for which the IC50 was 33.9 µM in assay [1] and above 50 µM in assay [2].

Turning to `O=C(NCc1ccncc1)OC1CCC(CNC(=O)C2CCCC2)CC1` (stereo not drawn) [Example 55, pyridin-4-ylmethyl-carbamic acid 4-[(cyclopentanecarbonyl-amino)-methyl]-cyclohexyl ester], the IC50 in assay [1] was 25.6 µM; in assay [2], above 50 µM.
